How the values were obtained:
WDR5 [1] = target: T1, WDR5 (Homo sapiens, UniProt P61964); assay: Fluorescence Polarization (FP) binding assay
Method in brief: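 Buffer was pH 6.5 sodium phosphate (80 mM) with 20 mM KCl and 0.008% Triton X-100; 9-Ala-FAM probe at 20 nM used 0.05 μM WDR5 and 480/540 nm polarization, H3 (1-15) probe at 30 nM used 0.3 μM WDR5 and 485/528 nm. Quadruplicate data were hyperbola-fitted to give Kdisp.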

WDR5 [2] = target: T1, WDR5; assay: Surface Plasmon Resonance (SPR) assay; format: binding; design: Full length WDR5 with an N-terminal His tag and C-terminal AviTag; His tag (N); made in house; host or cells: E. coli; conditions: read-out: SPR Kd
Method in brief: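 Full-length biotinylated WDR5 (N-His, C-AviTag, E. coli) captured (~3000 RU) on streptavidin SA chip; Biacore T200. HBS-EP pH 7.4 plus 5% DMSO running buffer, 40 μl/min.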

MV4-11 cells = assay: Cell proliferation assay (ATPlite); format: cell-based; conditions: Homo sapiens, 120 h; MV4-11 cells, five days; read-out: GI MV411 EC50
Method in brief: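 ATPlite luminescence after five days' culture (37° C, 5% CO2) gives viability. Compounds dosed in 10 concentrations up to 10 μM against DMSO; 1,000 cells/well seeded in Alpha-MEM/10% FBS.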

SMILES	IC50 (WDR5 [1]) [nM]	Kd (WDR5 [2]) [nM]	EC50 (MV4-11 cells) [nM]
CC(C)OC(=O)N1CC=C(c2c(F)cc(N3CCN(C)[C@@H](C)C3)c(NC(=O)c3c[nH]c(=O)cc3C(F)(F)F)c2F)C1 [Example 37, Isopropyl (S)-3-(4-(3,4-dimethylpiperazin-1-yl)-2,6-difluoro-3-(6-oxo-4-(trifluoromethyl)-1,6-dihydropyridine-3-carboxamido)phenyl)-2,5-dihydro-1H-pyrrole-1-carboxylate]	16.2	2.24	108
C[C@@H]1CN(c2ncc(-c3c(F)cc(N4CCN(C)[C@@H](C)C4)c(NC(=O)c4cn(C)c(=O)cc4C(F)(F)F)c3F)cn2)C[C@H](C)O1 [Example 164, N-(3-(2-((2S,6R)-2,6-dimethylmorpholino)pyrimidin-5-yl)-6-((S)-3,4-dimethylpiperazin-1-yl)-2,4-difluorophenyl)-1-methyl-6-oxo-4-(trifluoromethyl)-1,6-dihydropyridine-3-carboxamide]	13.3	1.16	71.9
C[C@H]1CN(c2cc(F)c(C3=CCN(c4ccnc(C#N)n4)C3)c(F)c2NC(=O)c2c[nH]c(=O)cc2C(F)(F)F)CCN1C [Example 107, (S)—N-(3-(1-(2-cyanopyrimidin-4-yl)-2,5-dihydro-1H-pyrrol-3-yl)-6-(3,4-dimethylpiperazin-1-yl)-2,4-difluorophenyl)-6-oxo-4-(trifluoromethyl)-1,6-dihydropyridine-3-carboxamide]	14.3	2.62	60.1
CC(C)[C@@H]1CN(c2nccc(-c3c(F)cc(N4CCN(C)[C@@H](C)C4)c(NC(=O)c4c[nH]c(=O)cc4C(F)F)c3F)n2)CCO1 [Example 124, 4-(Difluoromethyl)-N-(6-((S)-3,4-dimethylpiperazin-1-yl)-2,4-difluoro-3-(2-((R)-2-isopropylmorpholino)pyrimidin-4-yl)phenyl)-6-oxo-1,6-dihydropyridine-3-carboxamide]	12.4	0.8	55.9
C[C@@H]1CN(c2ccc(-c3c(F)cc(N4CCN(C)[C@@H](C)C4)c(NC(=O)c4cn(C)c(=O)cc4C(F)F)c3F)cn2)C[C@H](C)O1 [Example 175, 4-(Difluoromethyl)-N-(3-(6-((2S,6R)-2,6-dimethylmorpholino)pyridin-3-yl)-6-((S)-3,4-dimethylpiperazin-1-yl)-2,4-difluorophenyl)-1-methyl-6-oxo-1,6-dihydropyridine-3-carboxamide]	24.6	1.57	255
CC(C)[C@@H]1CN(c2ncc(-c3c(F)cc(N4C[C@@H](C)N(C)[C@@H](C)C4)c(NC(=O)c4c[nH]c(=O)cc4C(F)F)c3F)cn2)CCO1 [Example 118, N-(2,4-difluoro-3-(2-((R)-2-isopropylmorpholino)pyrimidin-5-yl)-6-((3S,5R)-3,4,5-trimethylpiperazin-1-yl)phenyl)-4-(difluoromethyl)-6-oxo-1,6-dihydropyridine-3-carboxamide]	12.2	0.95	12.2
C[C@@H]1CN(c2ncc(-c3c(F)cc(N4CCN(C)[C@@H](C)C4)c(NC(=O)c4c[nH]c(=O)cc4C(F)(F)F)c3F)cn2)CCO1 [Example 127, N-(6-((S)-3,4-dimethylpiperazin-1-yl)-2,4-difluoro-3-(2-((R)-2-methylmorpholino)pyrimidin-5-yl)phenyl)-6-oxo-4-(trifluoromethyl)-1,6-dihydropyridine-3-carboxamide]	11.7	0.69	10.2
C[C@H]1CN(c2cc(F)c(C3=CCN(C(=O)OC4(C)CCC4)CC3)c(F)c2NC(=O)c2c[nH]c(=O)cc2C(F)F)CCN1C [Example 92, 1-Methylcyclobutyl(S)-4-(3-(4-(difluoromethyl)-6-oxo-1,6-dihydropyridine-3-carboxamido)-4-(3,4-dimethylpiperazin-1-yl)-2,6-difluorophenyl)-3,6-dihydropyridine-1(2H)-carboxylate]	15.6	2.79	22.8
CC(C)OC(=O)N1CCC=C(c2c(F)cc(N3C[C@@H](C)N(C)[C@@H](C)C3)c(NC(=O)c3c[nH]c(=O)cc3C(F)(F)F)c2F)C1 [Example 13, Isopropyl 5-(2,6-difluoro-3-(6-oxo-4-(trifluoromethyl)-1,6-dihydropyridine-3-carboxamido)-4-((3S,5R)-3,4,5-trimethylpiperazin-1-yl)phenyl)-3,6-dihydropyridine-1(2H)-carboxylate]	14.4	1.91	173
C[C@H]1CN(c2cc(F)c(C3=CCCN(c4ncc(C#N)s4)C3)c(F)c2NC(=O)c2c[nH]c(=O)cc2C(F)F)CCN1C [Example 99, (S)—N-(3-(1-(5-cyanothiazol-2-yl)-1,2,5,6-tetrahydropyridin-3-yl)-6-(3,4-dimethylpiperazin-1-yl)-2,4-difluorophenyl)-4-(difluoromethyl)-6-oxo-1,6-dihydropyridine-3-carboxamide]	14.7	1.62	169
COc1cnc(N2CC=C(c3c(F)cc(N4C[C@@H](C)N(C)[C@@H](C)C4)c(NC(=O)c4c[nH]c(=O)cc4C(F)(F)F)c3F)CC2)nc1 [Example 137, N-(2,4-difluoro-3-(1-(5-methoxypyrimidin-2-yl)-1,2,3,6-tetrahydropyridin-4-yl)-6-((3S,5R)-3,4,5-trimethylpiperazin-1-yl)phenyl)-6-oxo-4-(trifluoromethyl)-1,6-dihydropyridine-3-carboxamide]	17	2.57	75.1
COc1cc(N2CC=C(c3c(F)cc(N4CCN(C)[C@@H](C)C4)c(NC(=O)c4c[nH]c(=O)cc4C(F)(F)F)c3F)C2)ncn1 [Example 75, (S)—N-(6-(3,4-dimethylpiperazin-1-yl)-2,4-difluoro-3-(1-(6-methoxypyrimidin-4-yl)-2,5-dihydro-1H-pyrrol-3-yl)phenyl)-6-oxo-4-(trifluoromethyl)-1,6-dihydropyridine-3-carboxamide]	18.5	1.8	35.1
CC(C)[C@H]1CN(c2ncc(-c3c(F)cc(N4C[C@@H](C)N(C)[C@@H](C)C4)c(NC(=O)c4c[nH]c(=O)cc4C(F)(F)F)c3F)cn2)CCO1 [Example 103, N-(2,4-difluoro-3-(2-((S)-2-isopropylmorpholino)pyrimidin-5-yl)-6-((3S,5R)-3,4,5-trimethylpiperazin-1-yl)phenyl)-6-oxo-4-(trifluoromethyl)-1,6-dihydropyridine-3-carboxamide]	17.7	5.01	14.7
C[C@H]1CN(c2ncc(-c3c(F)cc(N4CCN(C)[C@@H](C)C4)c(NC(=O)c4c[nH]c(=O)cc4C(F)(F)F)c3F)cn2)CCO1 [Example 60, N-(6-((S)-3,4-dimethylpiperazin-1-yl)-2,4-difluoro-3-(2-((S)-2-methylmorpholino)pyrimidin-5-yl)phenyl)-6-oxo-4-(trifluoromethyl)-1,6-dihydropyridine-3-carboxamide]	11	1.26	11.5
C[C@H]1CN(c2cc(F)c(C3=CCCN(C(=O)OC4CC(F)(F)C4)C3)c(F)c2NC(=O)c2c[nH]c(=O)cc2C(F)F)CCN1C [Example 43, 3,3-Difluorocyclobutyl (S)-5-(3-(4-(difluoromethyl)-6-oxo-1,6-dihydropyridine-3-carboxamido)-4-(3,4-dimethylpiperazin-1-yl)-2,6-difluorophenyl)-3,6-dihydropyridine-1(2H)-carboxylate]	15.9	1.7	653
C[C@H]1CN(c2cc(F)c(C3=CCN(c4ccnc(C#N)n4)C3)c(F)c2NC(=O)c2c[nH]c(=O)cc2C(F)F)CCN1C [Example 106, (S)—N-(3-(1-(2-cyanopyrimidin-4-yl)-2,5-dihydro-1H-pyrrol-3-yl)-6-(3,4-dimethylpiperazin-1-yl)-2,4-difluorophenyl)-4-(difluoromethyl)-6-oxo-1,6-dihydropyridine-3-carboxamide]	15	0.93	27.6
C[C@@H]1CN(c2cc(F)c(-c3cnc(N4CCOCC4)nc3)c(F)c2NC(=O)c2c[nH]c(=O)cc2C(F)(F)F)C[C@H](C)N1C [Example 2, N-(2,4-difluoro-3-(2-morpholinopyrimidin-5-yl)-6-((3S,5R)-3,4,5-trimethylpiperazin-1-yl)phenyl)-6-oxo-4-(trifluoromethyl)-1,6-dihydropyridine-3-carboxamide]	16.3	3.68	30.1
C[C@H]1CN(c2cc(F)c(-c3cnc(N4CCNCC4)nc3)c(F)c2NC(=O)c2ccc(F)cc2C(F)(F)F)CCN1C [Example 173, (S)—N-(6-(3,4-dimethylpiperazin-1-yl)-2,4-difluoro-3-(2-(piperazin-1-yl)pyrimidin-5-yl)phenyl)-4-fluoro-2-(trifluoromethyl)benzamide]	16	1.35	24.4
C[C@@H]1CN(c2cc(F)c(-c3ccnc(N4CCOCC4)c3)c(F)c2NC(=O)c2c[nH]c(=O)cc2C(F)(F)F)C[C@H](C)N1C [Example 69, N-(2,4-difluoro-3-(2-morpholinopyridin-4-yl)-6-((3S,5R)-3,4,5-trimethylpiperazin-1-yl)phenyl)-6-oxo-4-(trifluoromethyl)-1,6-dihydropyridine-3-carboxamide]	23.2	3.01	417

— patent US20200385371A1 (Propellon Therapeutics Inc., priority 2017, published 2020)
